In patent publication US12558428B2, “Heterobifunctional compounds and their use in treating disease” (Halda Therapeutics OpCo, Inc., priority 2024, dated 2026):
Like-named read-outs stand apart in the source and are kept apart here.

What was measured:
Format in all cases: cell-based
[1] = tested on: T-Rex 293 cells having increased expression of estrogen receptor alpha protein; experiment: Cellular growth inhibition assay, T-Rex 293 cells, (+) doxycycline; settings: T-REx-293, 72 h, 72 hours
Outline: (§1)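 Viability read-out was CellTiter-Glo 2.0 luminescence after 72 h compound exposure, normalized to zero luminescence and fitted by four-parameter regression to give GI50. Cells were an ERα-inducible T-Rex 293 clone cultured with or without 3 ng/mL doxycycline in charcoal-stripped, phenol red-free medium.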

[2] = tested on: T-Rex 293 cells lacking increased expression of estrogen receptor alpha protein; experiment: Cellular growth inhibition assay, T-Rex 293 cells, (−) doxycycline; settings: T-REx-293, 72 h, 72 hours
Outline: as §1

[3] = tested on: MCF7 cells (ATCC #HTB-22); experiment: Cellular growth inhibition assay, MCF7 cells purchased from ATCC; settings: Homo sapiens, MCF7, 144 h, Table 8-A; MCF7 cells purchased from ATCC; six days; CellTiter-Glo; read-out: GI50
Outline: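 MCF7 cells in RPMI 1640 with 10% FBS and 0.2 U/ml insulin, seeded at 1,500 cells/well (ATCC) or 225 cells/well (ECACC). Compounds added 24 h later, then 6 days at 37° C. Viability by CellTiter-Glo 2.0 luminescence. GI50 from four-parameter fit.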

[4] = T-Rex 293 cells with doxycycline-induced ERα expression, CellTiter-Glo 2.0, read-out: (+) Dox TRex ERa (GI50)
[5] = T-Rex 293 cells without doxycycline, CellTiter-Glo 2.0, read-out: (−) Dox TRex ERa (GI50)
[6] = Table 7-A, T-Rex 293 cells with doxycycline (increased ERα expression), CellTiter-Glo, read-out: (+) Dox GI50
[7] = Table 7-A, T-Rex 293 cells without doxycycline (lacking increased ERα expression), CellTiter-Glo, read-out: (−) Dox GI50

Structure (SMILES) | GI50 [1, 4] | GI50 [2, 5] | GI50 [3] | GI50 [1, 6] | GI50 [2, 7]
Cn1cc(-c2cc(C(C)(C)O)ccc2Oc2ccc(N3CCC4(CCN(CCOc5ccc(C(=O)c6c(-c7ccc(O)cc7)sc7cc(O)ccc67)cc5)CC4)C3)cc2)c2cc[nH]c2c1=O [I-35, 4-(2-(4-(8-(2-(4-(6-hydroxy-2-(4-hydroxyphenyl)benzo[b]thiophene-3-carbonyl)phenoxy)ethyl)-2,8-diazaspiro[4.5]decan-2-yl)phenoxy)-5-(2-hydroxypropan-2-yl)phenyl)-6-methyl-1,6-dihydro-7H-pyrrolo[2,3-c]pyridin-7-one] | < 0.05 µM | < 0.05 µM | < 0.05 µM |  | 
Cc1sc2c(c1C)C(c1ccc(OCCOCCCN3CC[C@H](Oc4ccc(C5=C(c6ccc(Cl)cc6Cl)CCCc6cc(O)ccc65)cc4)C3)cc1)=N[C@@H](C)c1nnc(C)n1-2 [I-36, 8-(2,4-dichlorophenyl)-9-(4-(((S)-1-(3-(2-(4-((S)-2,3,6,9-tetramethyl-6H-thieno[3,2-f][1,2,4]triazolo[4,3-a][1,4]diazepin-4-yl)phenoxy)ethoxy)propyl)pyrrolidin-3-yl)oxy)phenyl)-6,7-dihydro-5H-benzo[7]annulen-3-ol] | 0.5 to 2.5 µM | 0.5 to 2.5 µM | 0.5 to 2.5 µM |  | 
Cc1sc2c(c1C)C(c1ccc(CC3CC4(CCCN(c5ccc([C@@H]6c7ccc(O)cc7CC[C@@H]6c6ccccc6)cc5)C4)C3)cc1)=N[C@@H](C)c1nnc(C)n1-2 (stereo partly drawn) [I-44] |  |  | 0.5 to 2.5 µM | 0.05 to 0.5 µM | 0.5 to 2.5 µM
Cc1sc2c(c1C)C(c1ccc(C#CC3CC4(CCN(c5ccc([C@@H]6c7ccc(O)cc7CC[C@@H]6c6ccccc6)cc5)CC4)C3)cc1)=N[C@@H](Cc1ncco1)c1nnc(C)n1-2 [I-46] |  |  | 0.05 to 0.5 µM | < 0.05 µM | > 2.5 µM
Cc1sc2c(c1C)C(c1ccc(C#CC3CC4(CCN(c5ccc([C@@H]6c7ccc(O)cc7CC[C@@H]6c6ccccc6)cc5)CC4)C3)cc1)=N[C@@H](C)c1nnc(C)n1-2 [I-47] |  |  | 0.5 to 2.5 µM | 0.05 to 0.5 µM | > 2.5 µM
Cc1sc2c(c1C)C(c1ccc(OCCOCCCN3CC(Nc4ccc([C@@H]5c6ccc7n[nH]cc7c6C[C@@H](C)N5CC(F)(F)F)nc4)C3)cc1)=N[C@@H](C)c1nnc(C)n1-2 [I-57] |  |  | < 0.05 µM | < 0.05 µM | 0.5 to 2.5 µM
CC1=C(c2c(F)cc(F)cc2F)[C@H](c2ccc(OCCN3CC(COCCOc4ccc(C5=N[C@@H](C)c6nnc(C)n6-c6sc(C)c(C)c65)cc4)C3)cc2)Oc2ccc(O)cc21 [I-59] |  |  | 0.05 to 0.5 µM | 0.05 to 0.5 µM | 0.5 to 2.5 µM
CC1=C(c2ccc(O)cc2)[C@H](c2ccc(OCCN3CC[C@@H](OCCOCCOc4ccc(C5=N[C@@H](C)c6nnc(C)n6-c6sc(C)c(C)c65)cc4)C3)cc2)Oc2cc(O)ccc21 [I-60] |  |  | 0.05 to 0.5 µM | 0.05 to 0.5 µM | 0.5 to 2.5 µM
Cc1sc2c(c1C)C(c1ccc(CC3CC4(CCN(c5ccc([C@@H]6c7ccc(O)cc7CC[C@@H]6c6ccccc6)cc5)CC4)C3)cc1)=N[C@@H](Cc1ncco1)c1nnc(C)n1-2 [I-62, (5R,6S)-6-phenyl-5-(4-(2-(4-((S)-2,3,9-trimethyl-6-(oxazol-2-ylmethyl)-6H-thieno[3,2-f][1,2,4]triazolo[4,3-a][1,4]diazepin-4-yl)benzyl)-7-azaspiro[3.5]nonan-7-yl)phenyl)-5,6,7,8-tetrahydronaphthalen-2-ol] |  |  | > 2.5 µM | 0.05 to 0.5 µM | 0.5 to 2.5 µM
Cc1sc2c(c1C)C(c1ccc(N3CCN(CC4CCN(c5ccc([C@@H]6c7ccc(O)cc7CC[C@@H]6c6ccccc6)cc5)CC4)CC3)cc1)=N[C@H](Cc1ncco1)c1nnc(C)n1-2 [III-1, (5R,6S)-6-phenyl-5-(4-(4-((4-(4-((R)-2,3,9-trimethyl-6-(oxazol-2-ylmethyl)-6H-thieno[3,2-f][1,2,4]triazolo[4,3-a][1,4]diazepin-4-yl)phenyl)piperazin-1-yl)methyl)piperidin-1-yl)phenyl)-5,6,7,8-tetrahydronaphthalen-2-ol] |  |  | 0.5 to 2.5 µM | > 2.5 µM | > 2.5 µM
Cc1sc2c(c1C)C(c1ccc(N3CCN(CC4CCN(c5ccc([C@H]6c7ccc(O)cc7CC[C@H]6c6ccccc6)cc5)CC4)CC3)cc1)=N[C@H](Cc1ncco1)c1nnc(C)n1-2 [III-2, (5S,6R)-6-phenyl-5-(4-(4-((4-(4-((R)-2,3,9-trimethyl-6-(oxazol-2-ylmethyl)-6H-thieno[3,2-f][1,2,4]triazolo[4,3-a][1,4]diazepin-4-yl)phenyl)piperazin-1-yl)methyl)piperidin-1-yl)phenyl)-5,6,7,8-tetrahydronaphthalen-2-ol] |  |  | 0.5 to 2.5 µM | > 2.5 µM | > 2.5 µM
Cc1sc2c(c1C)C(c1ccc(N3CCN(CC4CCN(c5ccc([C@H]6c7ccc(O)cc7CC[C@H]6c6ccccc6)cc5)CC4)CC3)cc1)=N[C@@H](Cc1ncco1)c1nnc(C)n1-2 [III-3, (5S,6R)-6-phenyl-5-(4-(4-((4-(4-((S)-2,3,9-trimethyl-6-(oxazol-2-ylmethyl)-6H-thieno[3,2-f][1,2,4]triazolo[4,3-a][1,4]diazepin-4-yl)phenyl)piperazin-1-yl)methyl)piperidin-1-yl)phenyl)-5,6,7,8-tetrahydronaphthalen-2-ol] |  |  | 0.05 to 0.5 µM | 0.05 to 0.5 µM | 0.5 to 2.5 µM
Cc1sc2c(c1C)C(c1ccc(CC3CC4(CCN(c5ccc([C@@H]6c7ccc(O)cc7CC[C@@H]6c6ccccc6)cc5)CC4)C3)cc1)=N[C@H](Cc1ncco1)c1nnc(C)n1-2 [III-4, (5R,6S)-6-phenyl-5-(4-(2-(4-((R)-2,3,9-trimethyl-6-(oxazol-2-ylmethyl)-6H-thieno[3,2-f][1,2,4]triazolo[4,3-a][1,4]diazepin-4-yl)benzyl)-7-azaspiro[3.5]nonan-7-yl)phenyl)-5,6,7,8-tetrahydronaphthalen-2-ol] |  |  | > 2.5 µM | 0.5 to 2.5 µM | > 2.5 µM
Cc1sc2c(c1C)C(c1ccc(N3CCC(CN4CCN(c5ccc([C@@H]6c7ccc(O)cc7CC[C@@H]6c6ccccc6)cc5)CC4)CC3)cc1)=N[C@@H](C)c1nnc(C)n1-2 [III-5] |  |  | < 0.05 µM | < 0.05 µM | 0.5 to 2.5 µM
Cc1sc2c(c1C)C(c1ccc(N3CCC(CN4CCN(c5ccc([C@H]6c7ccc(O)cc7CC[C@H]6c6ccccc6)cc5)CC4)CC3)cc1)=N[C@@H](C)c1nnc(C)n1-2 [III-6] |  |  | 0.05 to 0.5 µM | 0.05 to 0.5 µM | 0.5 to 2.5 µM
Cc1sc2c(c1C)C(c1ccc(N3CCC(N4CC(Oc5ccc([C@@H]6c7ccc(O)cc7CC[C@@H]6c6ccccc6)cc5)C4)CC3)cc1)=N[C@@H](C)c1nnc(C)n1-2 [III-7] |  |  | 0.05 to 0.5 µM | 0.05 to 0.5 µM | 0.5 to 2.5 µM
Cc1sc2c(c1C)C(c1ccc(N3CCC(N4CC(Oc5ccc([C@H]6c7ccc(O)cc7CC[C@H]6c6ccccc6)cc5)C4)CC3)cc1)=N[C@@H](C)c1nnc(C)n1-2 [III-8] |  |  | 0.05 to 0.5 µM | 0.5 to 2.5 µM | 0.5 to 2.5 µM
Cc1sc2c(c1C)C(c1ccc(N3CCC(CN4CC(COc5ccc([C@H]6c7ccc(O)cc7CC[C@H]6c6ccccc6)cc5)C4)CC3)cc1)=N[C@@H](C)c1nnc(C)n1-2 [III-9] |  |  | 0.05 to 0.5 µM | < 0.05 µM | 0.05 to 0.5 µM
Cc1sc2c(c1C)C(c1ccc(N3CCC(CN4CC(COc5ccc([C@@H]6c7ccc(O)cc7CC[C@@H]6c6ccccc6)cc5)C4)CC3)cc1)=N[C@@H](C)c1nnc(C)n1-2 [III-10] |  |  | 0.05 to 0.5 µM | < 0.05 µM | 0.05 to 0.5 µM
Cc1sc2c(c1C)C(c1ccc(N3CC4(CCN(CC5CCN(c6ccc([C@H]7c8ccc(O)cc8CC[C@H]7c7ccccc7)cc6)CC5)CC4)C3)cc1)=N[C@@H](C)c1nnc(C)n1-2 [III-11] |  |  | 0.05 to 0.5 µM | < 0.05 µM | 0.05 to 0.5 µM
Cc1sc2c(c1C)C(c1ccc(N3CC4(CCN(CC5CCN(c6ccc([C@@H]7c8ccc(O)cc8CC[C@@H]7c7ccccc7)cc6)CC5)CC4)C3)cc1)=N[C@@H](C)c1nnc(C)n1-2 [III-12] |  |  | 0.05 to 0.5 µM | < 0.05 µM | 0.5 to 2.5 µM
Cc1sc2c(c1C)C(c1ccc(CC3CC4(CCCN(c5ccc([C@H]6c7ccc(O)cc7CC[C@H]6c6ccccc6)cc5)C4)C3)cc1)=N[C@@H](C)c1nnc(C)n1-2 (stereo partly drawn) [III-13] |  |  | 0.5 to 2.5 µM | 0.5 to 2.5 µM | > 2.5 µM
Cc1sc2c(c1C)C(c1ccc(CC3CC4(CCN(c5ccc([C@@H]6c7ccc(O)cc7CC[C@@H]6c6ccccc6)cc5)CC4)C3)cc1)=N[C@@H](C)c1nnc(C)n1-2 [III-14] |  |  | 0.5 to 2.5 µM | 0.05 to 0.5 µM | 0.5 to 2.5 µM
Cc1sc2c(c1C)C(c1ccc(CC3CC4(CCN(c5ccc([C@H]6c7ccc(O)cc7CC[C@H]6c6ccccc6)cc5)CC4)C3)cc1)=N[C@@H](C)c1nnc(C)n1-2 [III-15] |  |  | 0.5 to 2.5 µM | 0.5 to 2.5 µM | 0.5 to 2.5 µM
Cc1sc2c(c1C)C(c1ccc(N3CCN(CCOc4ccc([C@@H]5c6ccc(O)cc6CC[C@@H]5c5ccccc5)cc4)CC3)cc1)=N[C@@H](C)c1nnc(C)n1-2 [III-16] |  |  | 0.05 to 0.5 µM | 0.05 to 0.5 µM | 0.05 to 0.5 µM
Cc1sc2c(c1C)C(c1ccc(N3CCN(CCOc4ccc([C@H]5c6ccc(O)cc6CC[C@H]5c5ccccc5)cc4)CC3)cc1)=N[C@@H](C)c1nnc(C)n1-2 [III-17] |  |  | 0.5 to 2.5 µM | 0.5 to 2.5 µM | 0.5 to 2.5 µM
